The values that follow come from the supplement of paper PMC10307832.

Holding throughout (assay): relative viability (nuclei count vs DMSO), 5 days (fraction); higher = more cells survive
Compound in the test “Dabrafenib + Linsitinib”: CC(C)(C)c1nc(-c2cccc(NS(=O)(=O)c3c(F)cccc3F)c2F)c(-c2ccnc(N)n2)s1 [Dabrafenib] + C[C@]1(O)C[C@@H](c2nc(-c3ccc4ccc(-c5ccccc5)nc4c3)c3c(N)nccn32)C1 [Linsitinib] (partner 1 µM)
The procedure, abridged:
(§1)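 Lung cancer cell lines were pin-tool dosed in 1536-well plates on the day after seeding, with either a lone drug or a fixed anchor-drug dose plus five library-drug doses (not always all listed) in √10 steps. Nuclei were counted on 4× images after 5 days. Relative viability is the ratio of treated-well to vehicle-well nuclei counts, with each value a median of duplicate plates.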

Compound in the test “Dabrafenib + Dasatinib”: CC(C)(C)c1nc(-c2cccc(NS(=O)(=O)c3c(F)cccc3F)c2F)c(-c2ccnc(N)n2)s1 [Dabrafenib] + Cc1nc(Nc2ncc(C(=O)Nc3c(C)cccc3Cl)s2)cc(N2CCN(CCO)CC2)n1 [Dasatinib] (partner 0.075 µM)
The method in brief:
as §1

Compound in the test “Dabrafenib + Pemetrexed”: CC(C)(C)c1nc(-c2cccc(NS(=O)(=O)c3c(F)cccc3F)c2F)c(-c2ccnc(N)n2)s1 [Dabrafenib] + Nc1nc2[nH]cc(CCc3ccc(C(=O)N[C@@H](CCC(=O)O)C(=O)O)cc3)c2c(=O)[nH]1 [Pemetrexed] (partner 0.2 µM)
The procedure, abridged: as §1

Compound in the test “VX-702 + Lapatinib”: NC(=O)c1ccc(N(C(N)=O)c2c(F)cccc2F)nc1-c1ccc(F)cc1F [VX-702] + CS(=O)(=O)CCNCc1ccc(-c2ccc3ncnc(Nc4ccc(OCc5cccc(F)c5)c(Cl)c4)c3c2)o1 [Lapatinib] (partner 2 µM)
The method in brief: as §1

As to SW 1573, the relative viability with Dabrafenib + Linsitinib (first compound 0.003 µM) was found to be 0.827; with Dabrafenib + Linsitinib (first compound 0.009487 µM) it was 0.844; in the test with Dabrafenib + Linsitinib (first compound 0.03 µM), 0.722; with Dabrafenib + Linsitinib (first compound 0.09487 µM) it was 0.792; in the test with Dabrafenib + Linsitinib (first compound 0.3 µM), 0.821; with Dabrafenib + Dasatinib (first compound 0.003 µM) it was 0.263. In addition, the relative viability in the test with Dabrafenib + Dasatinib (first compound 0.009487 µM) came out at 0.557; with Dabrafenib + Dasatinib (first compound 0.03 µM), 0.457; with Dabrafenib + Dasatinib (first compound 0.09487 µM), 0.279; with Dabrafenib + Dasatinib (first compound 0.3 µM), 0.379; in the test with Dabrafenib + Pemetrexed (first compound 0.003 µM), 0.79; with Dabrafenib + Pemetrexed (first compound 0.009487 µM), 0.9. The relative viability was 0.792 in the test with Dabrafenib + Pemetrexed (first compound 0.03 µM); 0.777 with Dabrafenib + Pemetrexed (first compound 0.09487 µM); 0.782 with Dabrafenib + Pemetrexed (first compound 0.3 µM); 1.05 with VX-702 + Lapatinib (first compound 0.02 µM); 1.13 in the test with VX-702 + Lapatinib (first compound 0.2 µM); 1.05 in the test with VX-702 + Lapatinib (first compound 0.6325 µM). Also, the relative viability with VX-702 + Lapatinib (first compound 2 µM) is 0.919.

Regarding UMC-11, the relative viability with Dabrafenib + Linsitinib (first compound 0.003 µM) came to 1.12; with Dabrafenib + Linsitinib (first compound 0.009487 µM) it was 1.09; with Dabrafenib + Linsitinib (first compound 0.03 µM) it was 0.985; with Dabrafenib + Linsitinib (first compound 0.09487 µM) it was 0.982; in the test with Dabrafenib + Linsitinib (first compound 0.3 µM), 1.03; in the test with Dabrafenib + Dasatinib (first compound 0.003 µM), 0.43. Besides, the relative viability is 0.462 with Dabrafenib + Dasatinib (first compound 0.009487 µM); 0.41 in the test with Dabrafenib + Dasatinib (first compound 0.03 µM); 0.446 with Dabrafenib + Dasatinib (first compound 0.09487 µM); 0.501 with Dabrafenib + Dasatinib (first compound 0.3 µM); 0.761 in the test with Dabrafenib + Pemetrexed (first compound 0.003 µM); 0.806 with Dabrafenib + Pemetrexed (first compound 0.009487 µM). Moreover, the relative viability is 0.727 with Dabrafenib + Pemetrexed (first compound 0.03 µM); 0.822 with Dabrafenib + Pemetrexed (first compound 0.09487 µM); 0.871 with Dabrafenib + Pemetrexed (first compound 0.3 µM); 0.866 in the test with VX-702 + Lapatinib (first compound 0.02 µM); 0.908 with VX-702 + Lapatinib (first compound 0.2 µM); 0.769 in the test with VX-702 + Lapatinib (first compound 0.6325 µM). Further, the relative viability in the test with VX-702 + Lapatinib (first compound 2 µM) was found to be 1.04.
